Data set [1] deals with substantia nigra dopaminergic neurons. In words: Inhibition of dopaminergic nerve cell death in MPTP animal model of Parkinson's disease (tyrosine hydroxylase immunostaining). It is filed as in vivo, C57B16/J mice. The following applies: for survival rate of dopaminergic neurons, of that in the control group: 1 week before and after MPTP. As to the method: The dopaminergic neuronal cell protecting effect of the compound of the present invention was evaluated in an animal model of Parkinson’s disease. The animal model used was 7-week-old C57B16/J mice (23 to 25 g), to which MPTP (15 mg/kg) was administered 4 times at 1.5 hour intervals. For 1 to 2 days after administration, behavior was noticeably slowed and gradually recovered. In 1 week after MPTP administration, behavior was almost normalized to a level similar to that of normal mice.
In order to evaluate the efficacy of the compounds of the present invention, Compounds 1aaa (Compound 1), lace (Compound 27), 1ahe (Compound 44) and 1aje (Compound 62) were each administered at a dose of 5 mg/kg for 1 week, then MPTP (15 mg/kg x 4 times) was injected. These compounds were additionally administered for 1 week, and then dopamine innervation in the substantia nigra region was analyzed through immunostaining.
Specifically, selegiline, 1aaa, lace, 1ahe, 1aje, and apocynin were administered at a dose of 5 mg/kg for 7 days, then MPTP (15 mg/kg x 4 times) was administered to induce damage to dopaminergic neurons. After 7 days of additional administration of the compounds at the same dose, the animals were sacrificed. Immunostaining was performed using tyrosine hydroxylase antibody to measure the survival rate of substantia nigra dopaminergic neurons. After immunostaining, the number of surviving dopaminergic neurons was analyzed. The results are illustrated in FIG. 8.
In order to evaluate the efficacy of the compounds of the present invention, Compounds 1abv (Compound 22), 1abw (Compound 23), and 1ahs (Compound 52) were each intraperitoneally administered at a dose of 5 mg/kg for 1 week or orally administered at a dose of 50 mg/kg, then MPTP (15 mg/kg x 4 times) was injected. These compounds were additionally administered for 1 week, and then dopamine innervation in the substantia nigra region was analyzed through immunostaining. The results are illustrated in FIG. 9.
In order to evaluate the dopaminergic neuroprotective effect of the compounds of the present invention, Compounds 1aja (Compound 59) and 1abk (Compound 17) were each intraperitoneally administered at a dose of 5 mg/kg for 1 week, then MPTP (15 mg/kg x 4 times) was injected. These compounds were additionally administered for 1 week. After immunostaining using brain slices from each group, surviving dopaminergic neurons were photographed under a microscope and analyzed. The results are illustrated in FIG. 10.
In order to evaluate the dopaminergic neuroprotective effect of the compounds of the present invention, Compounds 1ajs (Compound 63), 1ajy (Compound 67), and 1aqj (Compound 85) were each intraperitoneally administered at a dose of 5 mg/kg for 1 week, then MPTP (15 mg/kg x 4 times) was injected. These compounds were additionally administered for 1 week. After immunostaining using brain slices from each group, surviving dopaminergic neurons were photographed under a microscope and analyzed. The results are illustrated in FIG. 11.

For the next data set, the system named is MPTP-administered mice. As to the kind of experiment: Behavioral activity: beam test and challenge beam test in MPTP mice. It is filed as in vivo. The conditions noted are these: intraperitoneal 5 mg/kg. On the procedure: In order to evaluate the behavioral activation by the compounds of the present invention, Compounds lace (Compound 27), 1ahe (Compound 44), and 1abv (Compound 22) were each intraperitoneally administered at a dose of 5 mg/kg for 1 week, then MPTP (15 mg/kg x 4 times) was injected. These compounds were additionally administered for 1 week. A beam test and a challenge beam test were conducted 1 day before and 2 days after MPTP administration, respectively. The results are illustrated in FIG. 12.
In order to evaluate the behavioral activation by the compounds of the present invention, Compounds 1ajs (Compound 63), 1ajy (Compound 67), and 1abw (Compound 23) were each intraperitoneally administered at a dose of 5 mg/kg for 1 week, then MPTP (15 mg/kg x 4 times) was injected. These compounds were additionally administered for 1 week. A beam test and a challenge beam test were conducted 2 days after MPTP administration. The results are illustrated in FIG. 13.

Data set [2] is described as follows: Single acute toxicity evaluation 2 (2000 mg/kg oral). It is filed as in vivo, ICR mice. As to the method: Acute toxicity properties after single administration of the compounds of the present invention were evaluated in an animal model.
The test system of the next data set is SH-SY5Y cell line. As to the kind of experiment: Cell viability (MTT assay) after MPP+ or rotenone. It is filed as cell-based. The following applies: 0.5 µM compound, then MPP+ (2 mM) or rotenone (2 µM) for 24 hours. As to the method: Specifically, the SH-SY5Y cell line was treated with 0.5 µM of Compound 1aaa (Compound 1), 1aca (Compound 24), lace (Compound 27), 1ahe (Compound 44) or 1aje (Compound 62) and then with MPP+ (2 mM) or rotenone (2 µM) for 24 hours. Cell viability in the case of being treated with each compound is illustrated in FIGS. 4 and 5.
A general note: Formazan colour is commonly taken as a measure of viable cells.

The nature of another data set: in vivo. Also on record: species or system SD rats. The conditions noted are these: SD, rat, po. On the procedure: The bioavailability (BA) and pharmacokinetic properties of the compounds of the present invention were evaluated in an animal model. The compounds were administered to 8-week-old SD rats (300 to 350 g) at a dose of 2 to 5 mg/kg through oral and intravenous administration routes. After administration, blood was collected at regular time intervals and the time course of blood concentration was analyzed.

The subject of data set [3] is wild-type red mold strain GZ3639. In words: Inhibition of spore germination / reactive oxygen species generation through NOX enzyme inhibition in red mold. It is filed as cell-based. The conditions noted are these: 24 h, read-out: IC50 (µM), compound concentration at which the spore germination inhibition rate was 50%. On the procedure:
When NADPH oxidase (NOX), which is involved in the generation of reactive oxygen species in red mold, is inhibited, normal mycelial growth is inhibited, abnormal form of monocyclic conidia is formed, and germination is inhibited. The abnormal phenotype caused by the reduction of reactive oxygen species in red mold can be easily observed under an optical microscope. Through this, the ability to inhibit generation of reactive oxygen species through NOX inhibition was evaluated.
Specifically, for the evaluation of compound activity, 0.1 mM of the compound was added to a minimum medium (MM20) spore suspension diluted to ⅕. Spores ([…]) of wild-type red mold strain GZ3639 were inoculated into the medium and cultured at 25° C. for 24 h, followed by microscopic observation. Compounds having a germination inhibition rate and microcycle conidiation to be 50% or more of those in normal germination were selected, and their activities were evaluated at concentrations of 50 µM, 25 µM, and 10 µM. At this time, the activity of substances having a germination inhibition rate of 95% at 10 µM was further evaluated at concentrations of 5 µM, 1 µM, 0.5 µM, and 0.1 µM. Based on the result of this evaluation, the compound concentration (inhibitory concentration 50%, IC50) at which the spore germination inhibition rate was 50% was determined.

The mark [4] stands for this setting: Evaluation 2: intraperitoneal 5 mg/kg or oral 50 mg/kg.
Setting [5] is: Evaluation 1: beam test and challenge beam test.
[6] abbreviates: Evaluation 2: beam test, 2 days after MPTP.

Experimental findings from patent US20230286956A1 (DUKSUNG WOMEN'S UNIVERSITY INDUSTRY-ACADEMIC COOPERATION …, priority 2020, published 2023) are described below.

For `Cc1ccc(N2C(=O)C(=Cc3ccc(NCCOCCO)cc3)N(C)C2=[Se])cc1` [Compound 1abv], the “survival rate of dopaminergic neurons, of that in the control group” value (from here on “survival rate of dopaminergic neurons”) in data set [1] (setting [4]) is 67.8%. Besides, the “reduction of time for mice to reach the home cage compared to MPTP administration group” value (from here on “reduction of time for mice”) in the data set with MPTP-administered mice (setting [5]) is listed as no less than 50%. For the same molecule, the “change in body weight” value is 100 in data set [2] (day 0); 99.0 in data set [2] (day 2); 100.0 in data set [2] (day 4); 102.5 in data set [2] (day 8); 103.4 in data set [2] (day 10); 105.0 in data set [2] (day 14).
`Cc1ccc(N2C(=O)C(=Cc3ccc(NCCN4CCOCC4)cc3)N(C)C2=[Se])cc1` [Compound 1abw]: the “survival rate of dopaminergic neurons” value in data set [1] (setting [4]) was 72.3%. Also, the “reduction of time for mice” value in the data set on MPTP-administered mice (setting [6]) is recorded as “about 50%”.
Take `CCc1ccc(N2C(=O)C(=Cc3ccc(O)cc3O)N(C)C2=[Se])cc1` [Compound 1aca]: the “cell viability / inhibition of cell death” value (“cell viability / inhibition” for short) in the data set with SH-SY5Y cell line is reported as “significantly inhibit cell death”.
On to `CN1C(=[Se])N(CCc2ccccc2)C(=O)C1=Cc1cc(O)cc(O)c1` [Compound 1ahe], for which the “cell viability / inhibition” value in the data set with SH-SY5Y cell line is recorded as “significantly inhibit cell death”. Besides, the “change in body weight” value in data set [2] (day 0) was 100; in data set [2] (day 2), 98.6; in data set [2] (day 4), 100.9; in data set [2] (day 8), 104.2; in data set [2] (day 10), 105.5; in data set [2] (day 14) it was 106.0.
Turning to `CCCCCCN1C(=O)C(=Cc2cc(O)cc(O)c2)N(C)C1=[Se]` [Compound 1aje], the “cell viability / inhibition” value with SH-SY5Y cell line is recorded as “significantly inhibit cell death”.
With `CCCCCCN1C(=O)C(=Cc2ccc(N3CCOCC3)cc2)N(C)C1=[Se]` [Compound 1ajs], in the data set on MPTP-administered mice (setting [6]), the “reduction of time for mice” value is given as “about 50%”. The “change in body weight” value in data set [2] (day 0) stood at 100; in data set [2] (day 2) it was 94.3; in data set [2] (day 4) it was 91.9; in data set [2] (day 8), 96.7; in data set [2] (day 10), 101.6; in data set [2] (day 14) it was 99.4.
On to `CCCCCCN1C(=O)C(=Cc2ccc(NCCOCCF)cc2)N(C)C1=[Se]` [Compound 1ajy], for which the “survival rate of dopaminergic neurons” value in data set [1] (Evaluations 3 and 4: intraperitoneal 5 mg/kg) was determined as 50.6%. Also, the “reduction of time for mice” value with MPTP-administered mice (setting [6]) was “about 50%”.
In “in vivo”, `CCc1ccc(N2C(=O)/C(=C\c3cc(O)cc(O)c3)N(C)C2=[Se])cc1` [Compound 27, 5-(3,5-dihydroxybenzylidene)-3-(4-ethylphenyl)-1-methyl-2-selenoxoimidazolidine-4-on] showed a bioavailability of 31%. Also, the IC50 in data set [3] came to 9 µM.
`CN1C(=[Se])N(CCc2ccccc2)C(=O)/C1=C\c1cc(O)cc(O)c1` [Compound 44] gave a bioavailability in “in vivo” of 73%. For the same molecule, the IC50 in data set [3] came out at 1 µM.
The molecule `CCCCCCN1C(=O)/C(=C\c2ccc(O)cc2O)N(C)C1=[Se]` [Compound 59, 5-(2,4-dihydroxybenzylidene)-3-hexyl-1-methyl-2-selenoxoimidazolidine-4-on] yielded a bioavailability in the data set “in vivo” of 23%. Further, the IC50 in data set [3] came to 0.68 µM.
As to `CCc1ccc(N2C(=O)C(=Cc3cc(O)cc(O)c3)N(C)C2=[Se])cc1` [lace], the “survival rate of substantia nigra dopaminergic neurons, of that in the control group” value in data set [1] (Evaluation 1: 5 mg/kg for 7 days, MPTP 15 mg/kg x 4, 7 further days) came out at 79.6%. The “cell viability / inhibition” value with SH-SY5Y cell line is on record as “significantly inhibit cell death”. Moreover, in the data set with MPTP-administered mice (setting [5]), the “reduction of time for mice” value was no less than 50%.

One may read the bioavailability as the share of a dose that reaches the circulation, judged against a reference dose that is usually intravenous.
